In paper PMC9317327, “Functional Characterization, Antimicrobial Effects, and Potential Antibacterial Mechanisms of NpHM4, a Derived Peptide of Nautilus pompilius Hemocyanin” (Marine Drugs, 2022) one finds MBC, MIC and IC50 data, which are given here for 3 molecules.

pIC50: −log10 of the molar value. In brackets after ≈: the same amount, converted by molar mass. Where a SMILES comes first, the peptide text is derived from it.

The test system of one assay is E. coli. Particulars: cited from earlier work. Here is the method:
In order to explore the antibacterial activity of the six predicted AMPs, the minimal inhibitory concentrations (MICs) and the minimal bactericidal concentrations (MBCs) of chemically synthesized NpHN1–NpHN6 peptides were measured against Gram-negative bacteria (Vibrio alginolyticus and Escherichia coli). […] The GR ...

For another assay, the system named is Bacillus megaterium. The note with it: cited from earlier work.
Another assay deals with Staphylococcus aureus. Particulars: cited from earlier work.
Assay [1] deals with Bacillus subtilis ATCC 6051. Format: cell-based. Particulars: ATCC 6051, 2 h, pH 7.2. Here is the method:
(§1) The antimicrobial activity of the peptides was determined against Gram-negative bacteria, including V. alginolyticus (A056), E. coli (DH5α), and V. parahaemolyticus (2013V-1174), which were obtained from the South China Sea Institute of Oceanology, Chinese Academy of Sciences. The activity was also tested against the Gram-positive bacteria S. aureus ATCC 25923 and B. subtilis ATCC 6051. To assess the antimicrobial activities of the peptides, bacterial cells were cultured to the logarithmic growth phase and then diluted to 10^6–1.5 × 10^7 CFU/mL with PBS (0.01 M, pH 7.2). Equal volumes of serially diluted peptides, with concentrations ranging from 30 to 450 μM in PBS, and bacteria suspension were mixed and incubated at room temperature for 2 h, respectively. Then, 6 μL of each serially diluted mixture was plated on sterile 12-well agar plates, followed by incubation for 11 to 12 h, and the colonies were assessed to determine the MICs and MBCs. The MICs were expressed (in µM) as an [a]–[b] concentration interval, where [a] is the highest peptide concentration at which bacteria were growing and [b] is the lowest concentration that caused 100% growth inhibition. Cultures without peptides were employed as controls. All the tests were performed in triplicate and repeated three times.

The test system of a further assay is Escherichia coli (DH5α). Format: cell-based. The note with it: DH5α, 2 h, pH 7.2. Here is the method:
as §1

The subject of assay [2] is Staphylococcus aureus ATCC 25923. Format: cell-based. The note with it: ATCC 25923, 2 h, pH 7.2. Here is the method:
as §1

Assay [3] relates to Vibrio alginolyticus (A056). Format: cell-based. The note with it: 2 h, pH 7.2. Here is the method: as §1
The test system of assay [4] is Vibrio parahaemolyticus 2013V-1174. In kind it is cell-based. Particulars: 2 h, pH 7.2. Here is the method:
as §1

For assay [5], the system named is Vibrio alginolyticus (A056). Format: cell-based. The note with it: 2 h.
Assay [6] relates to Vibrio parahaemolyticus 2013V-1174. Format: cell-based. Particulars: 2 h.

Turning to GSTSFHLIYNKWFAVKRRRKR [GR21], the MBC result in the assay on E. coli, in the assay on Bacillus megaterium and in the assay with Staphylococcus aureus was “below 25 μM” throughout.
On to `CC[C@H](C)[C@H](NC(=O)CNC(=O)[C@H](Cc1c[nH]cn1)NC(=O)[C@H](CCCNC(=N)N)NC(=O)[C@H](CC(C)C)NC(=O)[C@H](Cc1ccccc1)NC(=O)CNC(=O)[C@H](C)NC(=O)[C@H](CCCNC(=N)N)NC(=O)[C@@H](NC(=O)[C@@H](N)CCCNC(=N)N)C(C)C)C(=O)N[C@@H](CCCCN)C(=O)N[C@@H](CCCNC(=N)N)C(=O)N[C@@H](CO)C(=O)N[C@@H](C)C(=O)O` [NpHM6] (H-RVRAGFLRHGIKRSA-OH), for which the MBC (in general, the lowest tested concentration that kills the bacteria rather than only halting them) in [1] is more than 50 µM; against Escherichia coli (DH5α) it was more than 50 µM; in assay [2] it was more than 50 µM; in assay [3], more than 70 µM; in assay [4] it was more than 60 µM. Also, the minimum inhibitory concentration (MIC) – broadly, the lowest concentration found to suppress growth – was more than 50 µM in assay [1]; more than 50 µM against Escherichia coli (DH5α); more than 50 µM in assay [2]; more than 70 µM in assay [3]; 15 to 60 µM in [4].
As to `CC[C@H](C)[C@H](NC(=O)CNC(=O)[C@H](Cc1c[nH]cn1)NC(=O)[C@H](CCCNC(=N)N)NC(=O)[C@H](CC(C)C)NC(=O)[C@H](Cc1ccccc1)NC(=O)CNC(=O)[C@H](C)NC(=O)[C@H](Cc1ccccc1)NC(=O)[C@@H](NC(=O)[C@@H](N)CCCNC(=N)N)C(C)C)C(=O)N[C@@H](CCCCN)C(=O)N[C@@H](CCCNC(=N)N)C(=O)N[C@@H](CO)C(=O)N[C@@H](CCCNC(=N)N)C(=O)O` [NpHM4] (H-RVFAGFLRHGIKRSR-OH), the MBC is more than 50 µM in assay [1]; more than 150 µM in the assay with Escherichia coli (DH5α); more than 50 µM in assay [2]; 30 µM (≈ 54 µg/mL) in assay [3]; 50 µM (≈ 90 µg/mL) in assay [4]. The minimal inhibitory concentration (MIC) in assay [1] was more than 50 µM; against Escherichia coli (DH5α) it was 50 to 150 µM; in assay [2] it was more than 50 µM; in assay [3] it was 5 to 25 µM; in assay [4], 15 to 45 µM. In addition, the pIC50 (commonly the negative decadic logarithm of the IC50, by convention in mol/L) in assay [5] was 4.91; in assay [6] it was 4.49.
